Source: ChEMBL document CHEMBL5518239, “Recent Advances on Small-Molecule Inhibitors of Lipocalin-like Proteins” (J Med Chem, 2024)
pIC50, pKd, pKi: −log10 of the molar value. Blank lines part the entries; values can stand above or below the molecule they belong to.

Assays:
in vitro = details: human, liver microsomes
[1] = molecular target: T1, Retinol-binding protein 1 (Homo sapiens, UniProt P09455)
T1 sequence (P09455 whole entry): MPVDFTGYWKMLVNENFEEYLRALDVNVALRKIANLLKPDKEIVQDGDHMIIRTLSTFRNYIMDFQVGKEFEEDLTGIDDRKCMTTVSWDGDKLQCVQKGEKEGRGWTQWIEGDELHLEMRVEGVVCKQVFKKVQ

[2] = molecular target: Retinol-binding protein 4 (Homo sapiens, UniProt P02753)
[3] = molecular target: T2, Fatty acid-binding protein, heart (Homo sapiens, UniProt P05413)
[4] = molecular target: T3, Fatty acid-binding protein, brain (Homo sapiens, UniProt O15540)
[5] = molecular target: T4, Fatty acid-binding protein, adipocyte (Homo sapiens, UniProt P15090)
[6] = molecular target: T2, Fatty acid-binding protein, heart; remark: listed apart in the source
[7] = molecular target: T1, Retinol-binding protein 1; remark: listed apart in the source
[8] = molecular target: T3, Fatty acid-binding protein, brain; remark: listed apart in the source
[9] = molecular target: T4, Fatty acid-binding protein, adipocyte; remark: listed apart in the source

remaining at 0.5 h (in vitro): < 30%
SMILES: O=C(O)c1ccccc1NC(=O)N1CCC(c2ccccc2C(F)(F)F)CC1

pKi [1]: 5.15
SMILES: Cc1ccc(C2(c3noc(CN(C)Cc4cnn(C)c4)n3)CCCC2)cc1

pKd [2]: 6.88
SMILES: CC1=C(/C=C/C(C)=C/C=C/C(C)=C/C(=O)Nc2ccc(N(C)C)cc2)C(C)(C)CCC1

pKd [2]: 6.88
SMILES: CC1=C(/C=C/C(C)=C/C=C/C(C)=C/C(=O)N2CCOCC2)C(C)(C)CCC1

pKd [2]: 6.88
SMILES: CC1=C(/C=C/C(C)=C/C=C/C(C)=C/C(=O)Nc2ccc(OCC(=O)O)cc2)C(C)(C)CCC1

pKd [2]: 6.88
SMILES: CC1=C(/C=C/C(C)=C/C=C/C(C)=C/C(=O)NCC(O)CO)C(C)(C)CCC1 (stereo not given)

pKi [3]: 5.44
pKi [4]: 6.40
SMILES: O=C(O)[C@H]1[C@@H](c2ccccc2)[C@H](C(=O)Oc2cccc3ccccc23)[C@@H]1c1ccccc1

pIC50 [5]: 5.40
SMILES: O=C(O)Cc1cn(-c2ccccc2-c2nc(-c3ccccc3)c(-c3ccccc3)s2)nn1

pIC50 [5]: 5.90
SMILES: O=C(O)Cc1cn(-c2ccccc2-c2nc(-c3ccc4ccccc4c3)c(-c3ccccc3)s2)nn1

pIC50 [5]: 5.60
SMILES: O=C(O)Cc1cn(-c2ccccc2-c2nc(-c3ccc(Cl)cc3)c(-c3ccccc3)s2)nn1

pKi [4]: 6.08
SMILES: O=C(O)[C@H]1[C@H](c2ccccc2)[C@H](C(=O)Oc2cccc(C3=CCOCC3)c2)[C@H]1c1ccccc1

pKi [6]: 7.62
SMILES: O=C(O)CCCOc1ccc(F)cc1-c1cc(-c2ccccc2C(F)(F)F)n(-c2ccccc2)n1

pKi [3]: 5.80
SMILES: COc1ccccc1[C@H]1[C@H](C(=O)O)[C@H](c2ccccc2OC)[C@H]1C(=O)Oc1ccccc1-c1ccccc1

pKi [1]: 5.15
SMILES: Cc1ccc(C2(c3noc(CN(C)Cc4cccs4)n3)CCCC2)cc1

pKi [7]: 7.17
SMILES: C=C(C)C1CCCC[C@H]1c1c(O)cc(O)cc1CCCCC (stereo not given in full)

pKi [3]: 5.59
pKi [8]: 5.82
SMILES: O=C(O)[C@H]1[C@@H](c2ccccc2)[C@H](C(=O)Nc2cccc3ccccc23)[C@@H]1c1ccccc1

pKi [3]: < 5.00
pKi [8]: 5.48
SMILES: O=C(Nc1cccc2ccccc12)[C@H]1[C@H](c2ccccc2)[C@H](C(=O)Nc2cccc3ccccc23)[C@H]1c1ccccc1

pKi [1]: 5.15
SMILES: CC(c1cccs1)N(C)Cc1nc(C(c2ccccc2)c2ccccc2)no1 (stereo not given)

pKi [3]: 5.46
pKi [8]: 5.89
SMILES: O=C(O)[C@H]1[C@@H](c2ccccc2)[C@H](C(=O)Oc2ccc3ccccc3c2)[C@@H]1c1ccccc1

pKd [2]: 6.88
SMILES: CC1=C(/C=C/C(C)=C/C=C/C(C)=C/C(=O)NCCO)C(C)(C)CCC1

pIC50 [9]: 6.05
SMILES: C=C1CC[C@@H]2[C@](C)(CO)[C@H](O)CC[C@@]2(C)[C@@H]1C/C=C1/C(=O)OC[C@H]1O [ANDROGRAPHOLIDE]
